The values that follow come from PubChem BioAssay (NCI).

Each structure is given as a SMILES string.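 How tested: cells in 96-well plates exposed to compound for 48 hours at five concentrations. Here, GI50 denotes the concentration required for 50% inhibition of growth. At the TGI there is no net growth.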

Test in all cases: NCI-60 cell line screen, 48 h
In test [1] the test system is TK-10 renal.
Test [2] relates to OVCAR-5 ovarian.
The subject of test [3] is OVCAR-3 ovarian.
Test [4] relates to SN12C renal.
Test [5] concerns SK-MEL-2 melanoma.
Test [6] deals with SNB-75 CNS.
The subject of test [7] is K-562 leukemia.
Test [8] deals with SNB-19 CNS.
Test [9] relates to SF-539 CNS.
Test [10] concerns OVCAR-8 ovarian.

As for `CC1=C(C#N)C23C(=O)c4ccccc4C(O)=C2C(=O)C=CC3(O)N1Cc1ccccc1` (configuration not stated), the GI50 in test [1] was 36.9 µM; in test [2], 30.3 µM; in [3], 32 µM; in [4] it was 52.5 µM; in test [5], 33 µM; in [6], 36.6 µM. For the same molecule, the GI50 in test [7] was 32.9 µM; in test [8], 40.1 µM; in test [9] it was 48.2 µM; in test [10], 38.5 µM. Besides, the TGI in test [1], in [2], in [3], in [4], in [5] and in test [6] was more than 100 µM throughout. Further, the TGI in test [7], in test [8], in test [9] and in test [10] was more than 100 µM each time.
On to `COc1cc2nc(-c3ccc(C(F)(F)F)cc3)cc(OCCCN3CCC(O)CC3)c2cc1OC`, for which the GI50 was 11.5 µM in [1]; 3.14 µM in test [2]; 6.1 µM in test [3]; 1.44 µM in test [4]; 3.85 µM in [5]; 2.58 µM in test [6]. The GI50 in [7] was 1.79 µM; in [8] it was 10.5 µM; in [9] it was 5.75 µM; in test [10] it was 1.66 µM. Further, the TGI in test [1] was found to be 25.7 µM; in test [2], 20.7 µM; in test [3], 22.2 µM; in [4], 19.7 µM; in [5], 16.5 µM; in test [6], 10.8 µM. The TGI in [7] is 16.7 µM; in [8], 28.3 µM; in test [9], 20.8 µM; in test [10] it was 22.2 µM.
Regarding `Cc1ccc(-c2nnc(-c3ccc4ccccc4c3)o2)cc1`, the TGI in test [1] is more than 60.6 µM; in test [2], more than 100 µM; in test [3], more than 100 µM; in test [4] it was more than 100 µM; in test [5], more than 32.6 µM; in test [6] it was 82.7 µM. Further, the TGI in test [7] was more than 51.2 µM; in [8] it was more than 100 µM; in test [9] it was more than 60.2 µM; in test [10], more than 100 µM.
Take `CCCCCCCC(=O)SCC/C=C/[C@@H]1CC(=O)NCc2cccc(n2)C2=N[C@@](C)(CS2)C(=O)N[C@@H](C(C)C)C(=O)N1`: the GI50 in test [1] was 1.09 µM; in test [2], 0.771 µM; in test [3], 0.402 µM; in test [4], 3.25 µM; in [5] it was 1.03 µM; in test [6], 0.223 µM. The GI50 in test [7] was 0.658 µM; in test [8], 2.06 µM; in [9], 2.72 µM; in [10] it was 0.421 µM. Also, the TGI in test [1] is 24.8 µM; in [2] it was more than 33.3 µM; in [3] it was 9.27 µM; in [4] it was more than 33.3 µM; in test [5], 15.6 µM; in test [6], more than 33.3 µM. Moreover, the TGI in test [7], in test [8], in [9] and in test [10] was more than 33.3 µM in each case.
With `COc1ccc(/C=C\c2cc(OC)c3c(c2)OCO3)c(O)c1O`, the TGI in test [1] is more than 86.6 µM; in test [2], 55 µM; in test [3], 47.4 µM; in test [4], 41.4 µM; in [5], 42.6 µM; in test [6], 15.5 µM. For the same molecule, the TGI in test [7] is 27 µM; in test [8], 23.6 µM; in test [9], 4.57 µM; in test [10], 32.5 µM.
Take `O=C(O)c1cc(C(=O)O)cc(N2C(=O)c3ccccc3C2=O)c1`: the TGI in test [1], in [2], in test [3], in test [4], in [5] and in [6] was more than 100 µM in each case. The TGI in test [7], in [8], in test [9] and in test [10] was more than 100 µM throughout.
Take `CSc1ccccc1C#C/C=C\C#Cc1ccccc1N1CCCC1=O`: the GI50 is more than 24.6 µM in test [1]; more than 24.2 µM in [2]; more than 26.2 µM in test [4]; more than 10.8 µM in test [6]; more than 11 µM in test [8]; more than 11.4 µM in [9]. Besides, the GI50 in test [10] was more than 13.1 µM. The TGI was more than 50 µM in test [1]; more than 50 µM in test [2]; more than 14 µM in test [3]; more than 50 µM in test [4]; more than 50 µM in [5]; more than 50 µM in [6]. Moreover, the TGI in [7] was more than 12.2 µM; in test [8], more than 50 µM; in test [9], more than 50 µM; in test [10] it was more than 50 µM.
As to `CC(=O)OC(C)C(=O)C1c2cccc(O)c2C(=O)c2c(O)cc(C)cc21` (configuration not stated), the TGI in test [1] came out at 2.88 µM; in test [2], 2.59 µM; in [3], 1.43 µM; in [4], 2.24 µM; in [5] it was 1.44 µM; in test [6] it was 1.83 µM. Further, the TGI in test [7] was determined as 9.03 µM; in [8], 1.6 µM; in [9] it was 0.589 µM; in test [10] it was 2.24 µM.
For the molecule `COc1ccc(NC(=O)c2cc(OC)cc(OC)c2)cc1`, the TGI is more than 100 µM in test [1]; more than 100 µM in test [2]; more than 48.6 µM in test [3]; more than 100 µM in [4]; more than 100 µM in [5]; more than 83.6 µM in [6]. The TGI in test [7] is more than 100 µM; in test [8], more than 100 µM; in [9], more than 70.3 µM; in test [10], more than 100 µM.
As for `O=C1C2=C(SCCS2)C(=O)c2ccccc21`, the TGI in [1] worked out at 3.24 µM; in test [2] it was 3.23 µM; in test [3], 3.08 µM; in test [4], 3.39 µM; in test [5], 4.07 µM; in test [6], 3.03 µM. Further, the TGI in test [7] came to 5.14 µM; in [8], 2.87 µM; in test [9], 3.09 µM; in test [10] it was 3.04 µM.
